# Experimental data as given in US20240368209A1, “GEMCITABINE ANTICANCER DERIVATIVE AND ANTICANCER PHARMACEUTICAL USE” (ASCENTAWITS PHARMACEUTICALS, LTD., priority 2021, published 2024).
# What was measured:
# [1] = tested on: HuPrime pancreatic cancer xenograft model PA1222; assay: In vivo pharmacodynamic experiment in HuPrime pancreatic cancer PA1222 PDX model
# [2] = Plasma stability in human plasma; type: in vitro ADME
# Procedure: The final concentration of organic solvents was 0.5%. The test was conducted in duplicate. • C.
# Samples were analyzed with LC-MS/MS. All calculations were conducted using Microsoft Excel.
# [3] = Metabolic stability in rat liver microsomes; type: in vitro ADME
# Procedure: Main solutions were prepared according to Table 9 below:
# (II) Two Separate Experiments were Performed • a) With cofactor (NADPH): 25 μL of 10 mM NADPH was added to the culture broth. The final concentration of liver microsomes was 0.5 mg/mL, and the final concentration of NADPH was 1 mM. • b) Without cofactor (NADPH): 25 μL of 100 mM phosphate buffer was added. The final concentration of liver microsomes was 0.5 mg/mL. The mixture was preheated at 37° C. for 10 minutes. (III) 25 μL of […] control compound or test compound solution was added to start the reaction. […] The final concentrations of the test compound and control compound were both 1 μM. The culture broth was cultured in water at 37° C. (IV) Aliquots of 30 μL were collected from the reaction solution at 0.5, 5, 15, 30, and 60 minutes, respectively. 5 volumes of cold acetonitrile and IS (internal standard, containing 100 nM of alprazolam, 200 nM of caffeine, and 100 nM of tolylbutanamide) were added to stop the reaction. […] 100 μL of supernatant was taken and mixed with 100 μL of ultrapure water, equally divided and analyzed with LC-MS/MS.
# All calculations were conducted using Microsoft Excel. The peak area was determined from the extracted ion chromatogram.
# [formula] [formula] [formula] • wherein, QH is the hepatic blood flow (mL/min/kg) in Table 10, and fub is the fraction of drug unbound in plasma, and assumed as 1.
# [4] = Group 5, 160 mg/kg i.v. Q2D×3 weeks, Day 32
smiles,measurement,setting,value
CC(C)NP(=O)(OCc1ccc([N+](=O)[O-])c(Oc2ccc(-c3ccc(F)cc3)c(F)c2)c1)OCC1OC(C2N=CC(N)=NC2=O)C(F)(F)C1O (centres unmarked) [Compound H11],Tumor volume (mm^3) (x ± S),"[1]; Group 4, 160 mg/kg i.p., day 0",101.91 mm^3
same,Tumor volume (mm^3) (x ± S),"[1]; Group 4, 160 mg/kg i.p., day 4",105.94 mm^3
same,Tumor volume (mm^3) (x ± S),"[1]; Group 4, 160 mg/kg i.p., day 7",96.63 mm^3
same,Tumor volume (mm^3) (x ± S),"[1]; Group 4, 160 mg/kg i.p., day 11",116.07 mm^3
same,Tumor volume (mm^3) (x ± S),"[1]; Group 4, 160 mg/kg i.p., day 14",139.61 mm^3
same,Tumor volume (mm^3) (x ± S),"[1]; Group 4, 160 mg/kg i.p., day 18",153.86 mm^3
same,Tumor volume (mm^3) (x ± S),"[1]; Group 4, 160 mg/kg i.p., day 21",188.69 mm^3
same,Tumor volume (mm^3) (x ± S),"[1]; Group 4, 160 mg/kg i.p., day 25",198.68 mm^3
same,Tumor volume (mm^3) (x ± S),"[1]; Group 4, 160 mg/kg i.p., day 28",195.90 mm^3
same,Tumor volume (mm^3) (x ± S),"[1]; Group 4, 160 mg/kg i.p., day 32",202.58 mm^3
same,weight loss and tolerability during treatment,"[1]; Group 5, 160 mg/kg i.v. Q2D×3 weeks","did not show any significant weight loss, and tolerated well"
same,Relative tumor volume (x ± S),[1]; [4],0.00 ± 0.00
same,T/C (%),[1]; [4],0.00%
same,TGI (%),[1]; [4],100%
same,complete tumor inhibition rate,[1]; [4],100%
same,Tumor volume (x ± S),"[1]; Group 5, 160 mg/kg i.v. Q2D×3 weeks, Day 32, mean ± standard error",0.00 ± 0.00
same,Average weight (g) of mice,"[1]; Group 5, 160 mg/kg i.v., Day 0",21.6 g
same,Average weight (g) of mice,"[1]; Group 5, 160 mg/kg i.v., Day 2",21.8 g
same,Average weight (g) of mice,"[1]; Group 5, 160 mg/kg i.v., Day 4",21.4 g
same,Average weight (g) of mice,"[1]; Group 5, 160 mg/kg i.v., Day 7",20.9 g
same,Average weight (g) of mice,"[1]; Group 5, 160 mg/kg i.v., Day 8",21.6 g
same,Average weight (g) of mice,"[1]; Group 5, 160 mg/kg i.v., Day 10",21.3 g
same,Average weight (g) of mice,"[1]; Group 5, 160 mg/kg i.v., Day 11",22.1 g
same,Average weight (g) of mice,"[1]; Group 5, 160 mg/kg i.v., Day 12",22.2 g
same,Average weight (g) of mice,"[1]; Group 5, 160 mg/kg i.v., Day 14",22.0 g
same,Average weight (g) of mice,"[1]; Group 5, 160 mg/kg i.v., Day 16",22.3 g
same,Average weight (g) of mice,"[1]; Group 5, 160 mg/kg i.v., Day 18",22.1 g
same,Average weight (g) of mice,"[1]; Group 5, 160 mg/kg i.v., Day 20",22.1 g
same,Average weight (g) of mice,"[1]; Group 5, 160 mg/kg i.v., Day 21",22.3 g
same,Average weight (g) of mice,"[1]; Group 5, 160 mg/kg i.v., Day 25",22.6 g
same,Average weight (g) of mice,"[1]; Group 5, 160 mg/kg i.v., Day 28",22.5 g
same,Average weight (g) of mice,"[1]; Group 5, 160 mg/kg i.v., Day 32",23.2 g
same,Tumor volume (mm^3) (x ± S),"[1]; Group 5, 160 mg/kg i.v., day 0",102.11 mm^3
same,Tumor volume (mm^3) (x ± S),"[1]; Group 5, 160 mg/kg i.v., day 4",98.46 mm^3
same,Tumor volume (mm^3) (x ± S),"[1]; Group 5, 160 mg/kg i.v., day 7",79.97 mm^3
same,Tumor volume (mm^3) (x ± S),"[1]; Group 5, 160 mg/kg i.v., day 11",40.67 mm^3
same,Tumor volume (mm^3) (x ± S),"[1]; Group 5, 160 mg/kg i.v., day 14",22.37 mm^3
same,Tumor volume (mm^3) (x ± S),"[1]; Group 5, 160 mg/kg i.v., day 18",11.52 mm^3
same,Tumor volume (mm^3) (x ± S),"[1]; Group 5, 160 mg/kg i.v., day 21",11.56 mm^3
same,Tumor volume (mm^3) (x ± S),"[1]; Group 5, 160 mg/kg i.v., day 25",6.73 mm^3
same,Tumor volume (mm^3) (x ± S),"[1]; Group 5, 160 mg/kg i.v., day 28",0.00 mm^3
same,Tumor volume (mm^3) (x ± S),"[1]; Group 5, 160 mg/kg i.v., day 32",0.00 mm^3
same,t1/2 (min),[2],∞
same,Remaining percentage (%),"[2]; 0 min, 5 μM, 37° C.",100.00%
same,plasma stability (in words),"[2]; 37° C., at least 2 hours",stable and has no significant metabolism
same,Remaining percentage (%),[2]; 15 min,95.74%
same,Remaining percentage (%),[2]; 30 min,94.17%
same,Remaining percentage (%),[2]; 60 min,102.77%
same,Remaining percentage (%),[2]; 120 min,99.46%
same,Hepatic Extraction Ratio (ER),[3],0.71
same,Predicted Hepatic CLH,[3],48.43 mL/min/kg
same,clearance and stability in liver microsomes (in words),[3],medium clearances and certain stability
same,Remaining percentage (%),"[3]; NADPH added, 0.5 minutes, 1 μM",100.00%
same,Remaining percentage (%),"[3]; NADPH added, 5 minutes",85.67%
same,Remaining percentage (%),"[3]; NADPH added, 15 minutes",56.17%
same,Remaining percentage (%),"[3]; NADPH added, 30 minutes",29.55%
same,Remaining percentage (%),"[3]; NADPH added, 60 minutes",13.20%
same,Remaining percentage (%),"[3]; NADPH not added, 0.5 minutes",100.00%
same,Remaining percentage (%),"[3]; NADPH not added, 60 minutes",103.20%
same,half-life at 1 μM,[3]; read-out: In vitro half-life t1/2,20.1 min
same,microsomal CLint at 1 μM,[3]; read-out: In vitro intrinsic clearance CLint,69 µL/min/mg
same,CLint scaled at 1 μM,[3]; read-out: Scale-up CLint,168 mL/min/kg
